Laboratory results: ChEMBL document CHEMBL1201862, “PubChem BioAssay data set” (2004)
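Values below derive from 48-hour exposures of cells grown in 96-well plates, with endpoints linearly interpolated between the two concentrations bracketing the appropriate inhibition level. Here, GI50 denotes the concentration required for 50% inhibition of growth.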 Calls of active or inactive are those of the source. No stated cut-off is given here; in the data, active = GI50 up to about 1.1 µM and inactive = higher.

What was measured:
Test in all cases: NCI tumour cell line growth inhibition, 48 h
786-0 = system: 786-0
A549 = system: A549
CAKI-1 = system: CAKI-1
HCT-116 = system: HCT-116
HOP-92 = system: HOP-92
IGROV-1 = system: IGROV-1
M14 = system: M14
OVCAR-4 = system: OVCAR-4
RPMI-8226 = system: RPMI-8226
RXF 393 = system: RXF 393
SK-MEL-2 = system: SK-MEL-2
SNB-19 = system: SNB-19
SW-620 = system: SW-620
TK-10 = system: TK-10
UACC-62 = system: UACC-62
UO-31 = system: UO-31
NCI-H226 = system: NCI-H226

Measured: GI50

CCCCCCCCCCCCCCCCc1c(O)nc(NN)nc1C(=O)OC
inactive: 786-0 > 50 µM | A549 > 50 µM | CAKI-1 > 50 µM | HCT-116 > 50 µM | HOP-92 22.4 µM | IGROV-1 > 50 µM | M14 > 50 µM | OVCAR-4 > 50 µM | RPMI-8226 > 50 µM | RXF 393 > 50 µM | SK-MEL-2 > 50 µM | SNB-19 > 50 µM | SW-620 > 50 µM | TK-10 > 50 µM | UACC-62 > 50 µM | UO-31 > 50 µM

CCCn1c(SCC)c2ccccc2c1-c1nc(F)nc(F)n1
inactive: 786-0 > 100 µM | A549 > 100 µM | CAKI-1 > 100 µM | HCT-116 > 100 µM | HOP-92 > 100 µM | M14 > 100 µM | NCI-H226 > 100 µM | OVCAR-4 > 100 µM | RPMI-8226 > 100 µM | RXF 393 > 100 µM | SK-MEL-2 > 100 µM | SNB-19 > 100 µM | SW-620 > 100 µM | TK-10 > 100 µM | UO-31 > 100 µM

NNC(=S)N/N=C/C(Cl)=C(\Cl)C(=O)O
inactive: 786-0 > 100 µM | A549 > 100 µM | CAKI-1 > 100 µM | HCT-116 > 100 µM | HOP-92 > 100 µM | IGROV-1 > 100 µM | M14 > 100 µM | NCI-H226 > 100 µM | OVCAR-4 > 100 µM | RPMI-8226 > 100 µM | RXF 393 > 100 µM | SK-MEL-2 > 100 µM | SNB-19 > 100 µM | SW-620 > 100 µM | TK-10 > 100 µM | UACC-62 > 100 µM | UO-31 > 100 µM

C/C(CC(=O)Nc1ccc(C)cc1)=N\NC(N)=S
inactive: 786-0 > 100 µM | A549 > 100 µM | HCT-116 > 100 µM | HOP-92 > 100 µM | IGROV-1 > 100 µM | M14 66.7 µM | NCI-H226 > 100 µM | RPMI-8226 > 100 µM | RXF 393 > 100 µM | SK-MEL-2 > 100 µM | SW-620 > 100 µM | TK-10 > 100 µM | UACC-62 > 100 µM | UO-31 > 100 µM

COc1ccc(C(=O)C(C(=O)CCC(=O)Nc2cccc(Cl)c2)c2ccc(OC)cc2)cc1 (configuration not stated)
inactive: 786-0 > 100 µM | A549 > 100 µM | CAKI-1 > 100 µM | HCT-116 > 100 µM | HOP-92 > 100 µM | IGROV-1 > 100 µM | M14 > 100 µM | NCI-H226 > 100 µM | OVCAR-4 > 100 µM | RPMI-8226 > 100 µM | SK-MEL-2 > 100 µM | SNB-19 > 100 µM | SW-620 > 100 µM | TK-10 > 100 µM | UACC-62 > 100 µM | UO-31 > 100 µM

NNC(=O)/C(=C/c1cccc([N+](=O)[O-])c1)NC(=O)c1ccccc1
inactive: 786-0 > 100 µM | A549 > 100 µM | CAKI-1 > 100 µM | HCT-116 > 100 µM | HOP-92 > 100 µM | IGROV-1 > 100 µM | M14 > 100 µM | NCI-H226 > 100 µM | OVCAR-4 > 100 µM | RPMI-8226 > 100 µM | RXF 393 > 100 µM | SK-MEL-2 > 100 µM | SNB-19 > 100 µM | SW-620 > 100 µM | TK-10 > 100 µM | UO-31 > 100 µM

CC(=O)OCCOCn1c2ccccc2c2c3c(c4c5ccccc5n(COCCOC(C)=O)c4c21)C(=O)N(Cc1ccccc1)C3=O
inactive: 786-0 > 100 µM | A549 > 100 µM | HCT-116 > 100 µM | HOP-92 55.5 µM | IGROV-1 > 100 µM | M14 > 100 µM | NCI-H226 > 100 µM | OVCAR-4 > 100 µM | RPMI-8226 > 100 µM | RXF 393 > 100 µM | SK-MEL-2 > 100 µM | SNB-19 > 100 µM | SW-620 > 100 µM | TK-10 > 100 µM | UACC-62 > 100 µM | UO-31 > 100 µM

[N-]=[N+]=NC1(Cc2ccccc2)C(=O)c2cccc3c2N(CCC3)C1=O (configuration not stated)
inactive: 786-0 > 100 µM | A549 > 100 µM | CAKI-1 > 100 µM | HCT-116 > 100 µM | HOP-92 > 100 µM | IGROV-1 > 100 µM | M14 > 100 µM | NCI-H226 > 100 µM | OVCAR-4 > 100 µM | RPMI-8226 > 100 µM | RXF 393 > 100 µM | SK-MEL-2 > 100 µM | SW-620 > 100 µM | TK-10 > 100 µM | UACC-62 > 100 µM | UO-31 > 100 µM

COc1ccc(S(=O)(=O)Nc2ccccc2C(=O)O)cc1
inactive: 786-0 > 100 µM | A549 > 100 µM | CAKI-1 > 100 µM | HOP-92 55.8 µM | IGROV-1 > 100 µM | M14 > 100 µM | NCI-H226 > 100 µM | OVCAR-4 > 100 µM | RPMI-8226 > 100 µM | RXF 393 > 100 µM | SK-MEL-2 > 100 µM | SNB-19 > 100 µM | SW-620 > 100 µM | TK-10 > 100 µM | UACC-62 > 100 µM | UO-31 > 100 µM
